A short description of series [1]: TRM-201-PK-101 single-dose pharmacokinetic study, 25 mg, fasted healthy subjects. It is filed as in vivo, human. Particulars: for Cmax / AUC(0-inf) / AUC: human, plasma, oral. Here is the method:
A Single-Dose, Open-Label, Phase 1, Adaptive Pharmacokinetic Study of TRM-201 (Rofecoxib) 25 mg Administered to Healthy Subjects in a Fasting State, with Comparison to Historical Pharmacokinetic Parameters of Previously Marketed Rofecoxib and a Food-Effect Substudy (“TRM-201-PK-101” or “101 PK Study”)
This is a single-center, open-label, adaptive PK study of TRM-201 consisting of a MAIN study with a PILOT portion conducted under a fasted condition, and a two-period crossover, FOOD-EFFECT sub study under both fasted and fed conditions. The PILOT portion of the study (21 subjects) will include a single dose of TRM-201 in a single group to assess the PK of TRM-201 in healthy volunteers under fasted conditions. Following completion of the PILOT portion and the decision to move forward, an additional 16 subjects will be enrolled in the MAIN study and an additional 16 subjects will be enrolled in the FOOD-EFFECT sub study. The MAIN study will include a single dose of TRM-201 to assess the PK of TRM-201 in healthy volunteers under fasted conditions. The FOOD-EFFECT sub study is a single-dose, two-period crossover study. A single dose of TRM-201 will be given on Day 1 of each dosing period to assess the PK of TRM-201 in healthy volunteers under both fasted and fed conditions. Subjects will be randomized 1:1 into the two sequences fasted followed by fed, and fed followed by fasted.
After Check-In, subjects will fast overnight for at least 10 hours before study drug administration. While fasting, subjects will have nothing to eat and only water to drink. Water will be permitted as desired, except for the period between 1 hour before and 1 hour after study drug dosing (excepting as permitted for dosing). After the 2-hour PK blood sample, subjects will be allowed one 250-mL cup of clear apple juice. After the 4-hour PK blood sample, subjects will be served a light lunch. Following the light lunch, subjects should receive standardized meals according to the clinic's standard procedures that are scheduled at consistent times and at least 15 minutes before or 15 minutes after PK sampling time points. Blood will be withdrawn for PK analysis at predefined time points as defined in Table 8. The last time point will be 120 hours after dosing with study drug. After the 120-hour PK sample, the EOS procedures will be completed, and subjects will be discharged from the clinic.
This is an open-label PK study. Each subject is scheduled to receive a single 25-mg dose of TRM-201 in the PILOT portion and the MAIN study, and a single 25-mg dose of TRM-201 twice in the FOOD-EFFECT sub study. TRM-201 manufactured and formulated as Batch 5 (B18090) and Batch 6 (B18091), above, will be used in the study.
The time points and windows for PK blood sampling for the PILOT portion, Main study and FOOD-EFFECT substudy are presented in Table 14 below. For each sample, approximately 3 mL of blood will be drawn. The samples may be obtained by a straight stick or via an in-dwelling intravenous (IV) catheter in a forearm vein. Additional details for the collection, processing, storage, and shipping of PK samples will be provided in the study manual.
Pharmacokinetic samples will be analyzed using a validated assay for rofecoxib in human plasma. Assay results and validation details will be provided in a separate bioanalytical report.
The following PK parameters for rofecoxib will be calculated as primary endpoints using standard noncompartmental methods for both the PILOT portion and MAIN study, and the FOOD-EFFECT sub study: AUC0-∞ and Cmax. Secondary endpoints include Tmax, and t1/2. Additional PK parameters (e.g., CL/F, and Vd/F) will also be calculated using standard noncompartmental methods.
The PK parameters of rofecoxib will be analyzed based on the actual sampling times. All parameters will be calculated using the Phoenix® WinNonlin® version 6.4 or higher (Certara USA Inc., Princeton, N.J.) or SAS® version 9.3 or higher (SAS Institute Inc., Cary, N.C.). […]

Series [2] addresses cyclooxygenase-1 (COX-1) isoenzyme (Homo sapiens, UniProt P23219). Particulars: at therapeutic concentrations; listed as rofecoxib; cited from earlier work.
A short description of series [3]: TRM-201-PK-101 safety: treatment-emergent adverse events. In kind it is in vivo, human. Particulars: 25 mg, 101 study. An excerpt:
Safety and tolerability will include monitoring and recording of AEs, clinical laboratory assessments (hematology, serum chemistry, and urinalysis), vital sign measurements, 12-lead ECG assessments, and physical examination findings.
A treatment-emergent AE (TEAE) is defined as any event not present before exposure to study drug or any event already present that worsens in either intensity or frequency after exposure to study drug.
All safety data will be summarized for the PILOT portion, MAIN study, and FOOD-EFFECT sub study combined. Subjects who received 2 single doses will be counted once with all of their safety data combined. The incidence of adverse events will be presented by the MedDRA system organ class and preferred term, relationship to the test article, and severity. Descriptive statistics of clinical laboratory results and vital signs will be presented, as well as summaries of changes from baseline (from the Check-in visit(s)) and of clinically notable values.
All AE data will be presented in a data listing by study part and within the FOOD-EFFECT sub study by treatment sequence. TEAEs will be summarized overall, as well as by severity and relationship to study drug. Serious AEs and AEs leading to discontinuation of study drug will also be presented in the data listings and summarized.

Where [4] appears, read: 25 mg, versus Schwartz data, FIG. 28.

Entries after “also recorded” stand apart in the source; their conditions may differ. Where two headings read alike, the source gives them in different places.

cyclooxygenase-1 (COX-1) isoenzyme, sequence (P23219 24-599): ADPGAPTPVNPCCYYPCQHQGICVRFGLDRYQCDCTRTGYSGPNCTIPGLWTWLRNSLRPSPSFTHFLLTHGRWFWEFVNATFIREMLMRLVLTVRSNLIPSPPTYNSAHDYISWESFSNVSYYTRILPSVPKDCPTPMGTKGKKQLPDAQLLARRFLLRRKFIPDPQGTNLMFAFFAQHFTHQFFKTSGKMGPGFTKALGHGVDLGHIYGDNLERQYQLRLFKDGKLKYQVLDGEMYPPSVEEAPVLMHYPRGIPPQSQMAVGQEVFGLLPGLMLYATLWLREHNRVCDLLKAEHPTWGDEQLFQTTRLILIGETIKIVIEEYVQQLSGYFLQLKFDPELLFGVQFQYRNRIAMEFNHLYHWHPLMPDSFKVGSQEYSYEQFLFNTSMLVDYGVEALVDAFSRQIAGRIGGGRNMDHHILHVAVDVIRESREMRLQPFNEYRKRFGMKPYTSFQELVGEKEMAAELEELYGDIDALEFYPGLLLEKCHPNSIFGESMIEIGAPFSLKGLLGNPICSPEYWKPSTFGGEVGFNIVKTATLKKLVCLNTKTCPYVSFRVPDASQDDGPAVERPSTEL

Consider `CS(=O)(=O)c1ccc(C2=C(c3ccccc3)C(=O)OC2)cc1` [TRM-201, 4-[4-(methylsulfonyl)phenyl]-3-phenyl-2(5H)-furanone], for which the “AUC0-∞ compared to historical data” value in series [1] (setting [4]) is recorded as “larger”. The “Cmax compared to historical data” value in series [1] (setting [4]) is listed as “higher”. Besides, the maximum concentration (Cmax) in series [1] (17.5 mg, 17.5 mg formulation, estimated from 101 data, read-out: estimated Cmax) was around 238 ng/mL; in series [1] (17.5 mg, extrapolated from 25 mg assuming dose linearity, read-out: extrapolated Cmax), 223 ng/mL; in series [1] (20 mg, 20 mg formulation, estimated from 101 data, read-out: estimated Cmax), around 266 ng/mL; in series [1] (20 mg, extrapolated from 25 mg assuming dose linearity, read-out: extrapolated Cmax), 254 ng/mL; in series [1] (25 mg, 25 mg formulation in TRM-201-PK-101, as stated in Example 6, read-out: Geometric mean Cmax), 320 ng/mL; in series [1] (25 mg, fasted, FIG. 25, read-out: geometric mean Cmax) it was 318 ng/mL. Moreover, the AUC(0-inf) is 3250 ng·h/mL in series [1] (17.5 mg, extrapolated from 25 mg assuming dose linearity, read-out: extrapolated AUC0-∞); 3710 ng·h/mL in series [1] (20 mg, extrapolated from 25 mg assuming dose linearity, read-out: extrapolated AUC0-∞); 4640 ng·h/mL in series [1] (25 mg, fasted, FIG. 25, read-out: geometric mean AUC0-∞). For the same compound, the area under the curve (AUC) in series [1] (17.5 mg formulation, estimated from 101 data, read-out: estimated AUC) was around 3280 ng·h/mL; in series [1] (20 mg formulation, estimated from 101 data, read-out: estimated AUC), around 3740 ng·h/mL; in series [1] (25 mg formulation in TRM-201-PK-101, as stated in Example 6, read-out: Geometric mean AUC), 4680 ng·h/mL. Also, the “inhibition of COX-1” value in series [2] is “does not inhibit; also recorded: not cyclooxygenase 1 (COX-1)”. Moreover, the “serious TEAE or TEAE leading to discontinuation of the study” value in series [3] is recorded as “No subjects”. For the same compound, the “subjects observed with TEAEs” value in series [3] is recorded as “four”. In addition, the “subjects observed with TEAEs, share of the cohort” value in series [3] turned out to be 7.5%. Also, in series [3], the “subjects with TEAE related to treatment” value amounted to 2 subjects. Besides, in series [3], the “subjects with TEAE related to treatment, share of the cohort” value is 3.8%.
